Patent US20240423977A1, “FIVE-MEMBERED RING-FUSED SIX-MEMBERED RING COMPOUND, PREPARATION METHOD THEREFOR, AND PHARMACEUTICAL COMPOSITION AND USE THEREOF” (HANGZHOU POLYMED BIOPHARMACEUTICALS, INC., priority 2022, published 2024)
pIC50: −log10 of the molar value.

Assays:
[1] = molecular target: IRAK4 protein in THP-1 cells (Homo sapiens (Human), UniProt Q9NWZ3); experiment: PROTAC-induced IRAK4 protein degradation in THP-1 cells (Western Blot); format: cell-based; conditions: concentration that degraded 50% of IRAK4, Western blotting, 24 hours after administration
Protocol: 2.1 Based on the experimental method of Western Blot, specific antibodies were used to stain the THP-1 cell samples treated by gel electrophoresis, and the degrading activity of the compounds on the IRAK4 protein in THP-1 cells was determined by analyzing the position and depth of staining. The concentrations of compound for the detection included 0 μM, 0.3 μM, 1 μM and 3 μM, and the cells were treated by the compound for 8 hours, 16 hours, 24 hours, and 48 hours. Glyceraldehyde-3-phosphate dehydrogenase (GAPDH) is an internal reference protein in this experiment.
Electrophoresis buffer: 50 mL MOPS SDS Running Buffer (20×) and 50 mL 20×TBS Tween-20 buffer were diluted with deionized water to 1 L as the electrophoresis buffer;
5% skim milk (w/v): 2.5 g skim milk was diluted with 50 mL 1×TBS Tween-20 buffer to prepare 5% skim milk;
5% BSA (w/v): 2.5 g BSA was diluted with 50 mL 1×TBS Tween-20 buffer to prepare 5% BSA;
Anti-IRAK4 antibody was diluted with 5% BSA at 1:1000 into a primary antibody working solution;
Goat Anti-Rabbit IgG H&L (HRP) was diluted with 5% BSA at 1:2000 into a second antibody working solution; and
Goat Anti-Mouse IgG H&L (HRP) was diluted with 5% BSA at 1:2000 into a second antibody working solution.
THP-1 cells were plated in a 6-well plate at a density of 1.5×10^6 cells per ml and incubated for 2 hours in a cell culture incubator under 37° C. and 5% CO2. The compound was diluted with DMSO to 0.6 mM, 0.2 mM and 0.06 mM respectively. 10 μL of compound solution was added to the corresponding wells, and continued to incubate in the incubator for 16 hours, 24 hours and 48 hours respectively. The compound-treated THP-1 cells in the well were collected, added with 120 μL of RIPA lysate containing protease inhibitor, Phosphatase Inhibitor Cocktail 2 and Phosphatase Inhibitor Cocktail 3, lysed on wet ice for 30 minutes, and then the cells lysate was centrifuged at a high speed and a low temperature for 5 minutes to collect the supernatant. The protein concentration of the cell sample was determined according to the instructions in the Pierce™ BCA Protein Assay Kit.
The concentration of the sample was adjusted to be consistent using lysis buffer and NuPAGE® LDS sample buffer containing 1M DTT. The samples were heated at 95° C. for 5 minutes and centrifuged at a low temperature and at a high speed. 20 μL of the prepared protein sample and 4 μL of PageRuler Prestained Protein Ladder were added into the gel well for running at 80V voltage for 0.5 hours, then the voltage was adjusted to 120V for further running for 1.5 hours. The gel was removed and the proteins in the gel were transferred to the IBlotTM 2 transfer membrane set at 20V. After successful transfer, bands at 65 kDa-40 kDa and 40 kDa-30 kDa were cut respectively. The membranes were blocked with 5% skim milk for 1 hour at room temperature. The membranes were washed three times with 1× concentration of TBST, then incubated with IRAK4 antibody working solution overnight at 4° C. The IRAK4 antibody working solution was discarded, and the membranes were washed three times with 1×concentration of TBST, and incubated with Goat Anti-Rabbit IgG H&L (HRP) working solution and Goat Anti-Mouse IgG H&L (HRP) working solution at room temperature. After 1 hour of incubation, the antibody working solution was discarded and the membranes were washed three times with 1× concentration of TBST. According to the instructions of the kit SuperSignal™ West Femto Maximum Sensitivity Substrate, the reagents in the kit were mixed in equal volume proportions to prepare a luminescent liquid mixture. The membranes were incubated for 1 minute, then removed for exposure.
The results of Western blotting 24 hours after administration of the compounds with a concentration of 1 μM were shown in Table 3: […]

kinase IRAK4 = kinase IRAK4 (Homo sapiens (Human), UniProt Q9NWZ3); experiment: Inhibitory effects of compounds on kinase activity (fluorescence microfluidic mobility detection, competitive with ATP); format: biochemical; conditions: Table 2; IRAK4 6 nM, ATP 10 μM, substrate FAM-P8 3 μM
Protocol: Based on an experimental method of fluorescence microfluidic mobility detection, an IC50 value of competitive binding of kinase IRAK4 to ATP by the compounds was determined. The initial detection concentration of the compounds was 10 μM, diluted 4-fold gradient down to […], and tested in duplicate. Among them, commercial staurosporine was the standard control substance in this experiment.
1) IRAK4 kinase was dissolved in kinase buffer (50 mM HEPES pH 7.5, 10 mM MgCl2, 2 mM DTT and 0.01% Brij-35) to a final concentration of 6 nM.
2) The substrate peptide FAM-P8 and ATP were dissolved in the above kinase buffer. The final concentrations of the IRAK4 substrate peptide FAM-P8 and ATP were 3 μM and 10 μM respectively.
3) Dilution of the compounds: the compound was first diluted to 50 μM, and then diluted down with a 4-fold gradient of DMSO. The solution without the compound and kinase is used as a blank control, corresponding to the “minimum value” shown below; and the solution without the compound but with kinase, adenosine 5′-triphosphate disodium salt hydrate, DMSO and buffer is used as a positive control, corresponding to the “maximum value” shown below. 4) Kinase reaction and termination: 10 μL of kinase buffer was added to a 384-well plate containing 5 μL of the compound to be tested, and incubated at room temperature for 10 minutes. Another 10 μL of buffer containing the substrate peptide and adenosine 5′-triphosphate disodium salt hydrate was added to the 384-well plate. After incubation at 28° C. for one hour, 25 μL stop solution (100 mM HEPES pH 7.5, 50 mM EDTA, 0.2% Coating Reagent #3 and 0.015% Brij-35) was added to each well to terminate the reaction.
5) Data reading: the CaliperEZ Reader II instrument was used to read the conversion rate data. Conditions: downstream voltage −500V, upstream voltage −2250V, base pressure −0.5 PSI, and screening pressure −1.2 PSI.
6) Data calculation: the conversion rate data was copied from CaliperEZ Reader II and converted into inhibition rate data. The calculation formula is as follows:
[formula] • IC50 values were fitted using XLFit excel add-in version 5.4.0.8,
Y=Bottom+(Top−Bottom)/(1+(IC50/X)^HillSlope) Fitting formula: […]

IRAK4 protein in THP-1 cells, sequence (Q9NWZ3 whole entry): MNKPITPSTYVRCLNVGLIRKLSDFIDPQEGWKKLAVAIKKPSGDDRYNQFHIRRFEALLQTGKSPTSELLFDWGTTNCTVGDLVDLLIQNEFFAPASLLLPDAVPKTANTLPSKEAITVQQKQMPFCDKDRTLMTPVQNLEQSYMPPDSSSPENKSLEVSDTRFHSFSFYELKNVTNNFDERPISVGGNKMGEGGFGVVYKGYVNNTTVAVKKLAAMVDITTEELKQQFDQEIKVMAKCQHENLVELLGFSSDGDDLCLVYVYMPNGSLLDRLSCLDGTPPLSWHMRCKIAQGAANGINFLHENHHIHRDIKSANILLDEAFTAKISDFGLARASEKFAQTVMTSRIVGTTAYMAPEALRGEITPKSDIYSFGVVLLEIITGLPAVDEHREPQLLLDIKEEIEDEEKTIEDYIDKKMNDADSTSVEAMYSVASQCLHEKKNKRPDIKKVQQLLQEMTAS
kinase IRAK4, sequence (Q9NWZ3 whole entry): as above

DC50 [1] [nM]	pIC50 (kinase IRAK4)	SMILES
33.8	7.46	COc1cc2nn(C3CC4(CCN(c5cnn(C6CCN(c7ccc8c(c7)C(=O)N(C7CCC(=O)NC7=O)C8=O)CC6)c5)CC4)C3)cc2cc1NC(=O)c1cccc(C(F)(F)F)n1 (centres unmarked) [Compound I-32]
8.05	7.58	COc1cc2nn(C3CC4(CCN(C(=O)C5(O)CCN(c6ccc7c(c6)C(=O)N(C6CCC(=O)NC6=O)C7=O)CC5)CC4)C3)cc2cc1NC(=O)c1cccc(C(F)(F)F)n1 (centres unmarked) [Compound I-33]
22.7	7.40	COc1cc2nn(C3CC4(CCN(C(=O)C5(F)CCN(c6ccc7c(c6)C(=O)N(C6CCC(=O)NC6=O)C7=O)CC5)CC4)C3)cc2cc1NC(=O)c1cccc(C(F)(F)F)n1 (centres unmarked) [Compound I-34]
7.86	7.48	COc1cc2nn(C3CC4(CCN(C(=O)C5CCN(c6ccc7c(c6)C(=O)N(C6CCC(=O)NC6=O)C7=O)CC5(F)F)CC4)C3)cc2cc1NC(=O)c1cccc(C(F)(F)F)n1 (centres unmarked) [Compound I-35]
1.16	7.91	COc1cc2nn(C3CC4(CCN(C(=O)C5CCN(c6ccc7c(c6)C(=O)N(C6CCC(=O)NC6=O)C7=O)CC5)CC4)C3)cc2cc1NC(=O)c1coc(-c2ccnc(C)c2)n1 (centres unmarked) [Compound I-36]
20.7	7.52	COc1cc2nn(C3CC4(CCN(C(=O)C5(C)CCN(c6ccc7c(c6)C(=O)N(C6CCC(=O)NC6=O)C7=O)CC5)CC4)C3)cc2cc1NC(=O)c1cccc(C(F)(F)F)n1 (centres unmarked) [Compound I-37]
2.61	7.85	COc1cc2nn(C3CC4(CCN(C(=O)C5CCN(c6ccc7c(c6)C(=O)N(C6CCC(=O)NC6=O)C7=O)CC5)CC4)C3)cc2cc1NC(=O)c1cccc(C)n1 (centres unmarked) [Compound I-38]
4.42	7.30	COc1cc2nn(C3CC4(CCN(C(=O)C5CCN(c6ccc7c(c6)C(=O)N(C6CCC(=O)NC6=O)C7=O)CC5)CC4)C3)cc2cc1NC(=O)c1cccc(N2CCOCC2)n1 (centres unmarked) [Compound I-41]
1.2	7.99	COc1cc2nn(C3CC4(CCN(C(=O)C5CCN(c6ccc7c(c6)C(=O)N(C6CCC(=O)NC6=O)C7=O)CC5)CC4)C3)cc2cc1NC(=O)c1cccc(C(F)F)n1 (centres unmarked) [Compound I-42]
> 1000	7.68	COc1cc2nn(C3CC4(CCN(C(=O)C5CCN(c6ccc7c(c6)C(=O)N(c6ccc(=O)[nH]n6)C7=O)CC5)CC4)C3)cc2cc1NC(=O)c1cccc(C(F)(F)F)n1 [Compound I-43]
1.16	7.77	COc1cc2nn(C3CC4(CCN(C(=O)C5CCN(c6ccc7c(c6)C(=O)N(C6CCC(=O)NC6=O)C7=O)CC5)CC4)C3)cc2cc1NC(=O)c1cnn2ccc(N3C[C@H]4C[C@@H]3CO4)nc12 (some centres unmarked) [Compound I-44]
9.15	7.75	COc1cc2nn(C3CC4(CCN(C(=O)C5CCN(c6cc7c(cc6F)C(=O)N(C6CCC(=O)NC6=O)C7=O)CC5)CC4)C3)cc2cc1NC(=O)c1cccc(N2CCOCC2)n1 (centres unmarked) [Compound I-46]
5.53	8.04	COc1cc2nn(C3CC4(CCN(C(=O)C5CCN(c6ccc7c(c6)C(=O)N(C6CCC(=O)NC6=O)C7=O)CC5)CC4)C3)cc2cc1NC(=O)c1ccn(C(F)F)n1 (centres unmarked) [Compound I-47]
> 1000	7.72	O=C1CCC(N2C(=O)c3ccc(N4CCC(C(=O)N5CCC6(CC5)CC(n5cc7cc(NC(=O)c8cccc(C(F)(F)F)n8)c(C(=O)O)cc7n5)C6)CC4)cc3C2=O)C(=O)N1 (centres unmarked) [Compound I-48]
9.79	7.87	COc1cc2nn(C3CC4(CCN(C(=O)C5CCN(c6ccc7c(c6)C(=O)N(C6CCC(=O)NC6=O)C7=O)CC5)CC4)C3)cc2cc1NC(=O)c1cnn2ccc(N3CCN(C)CC3)nc12 (centres unmarked) [Compound I-49]
21.6	7.15	COc1cc2nn(C3CC4(CCN(C(=O)C5(F)CCN(c6ccc7c(c6)C(=O)N(C6CCC(=O)NC6=O)C7=O)CC5)CC4)C3)cc2cc1NC(=O)c1cccc(N2CCOCC2)n1 (centres unmarked) [Compound I-50]
149	8.27	COc1cc2nn(C3CC4(CCN(C5CCN(C(=O)c6ccc7c(c6)C(=O)N(C6CCC(=O)NC6=O)C7=O)CC5)CC4)C3)cc2cc1NC(=O)c1cccc(C(F)(F)F)n1 (centres unmarked) [Compound I-51]
3.9	7.88	COc1cc2nn(C3CC4(CCN(C(=O)C5CCN(c6ccc7c(c6)C(=O)N(C6CCC(=O)NC6=O)C7=O)CC5)CC4)C3)cc2cc1NC(=O)c1cccc(N2CC3CC2CO3)n1 (centres unmarked) [Compound I-52]
> 1000	6.86	O=C1CCC(N2C(=O)c3ccc(N4CCC(C(=O)N5CCC6(CC5)CC(n5cc7cc(NC(=O)c8cccc(C(F)(F)F)n8)c(F)cc7n5)C6)CC4)cc3C2=O)C(=O)N1 (centres unmarked) [Compound I-53]
6.2	7.94	COc1cc2nn(C3CC4(CCN(C(=O)C5CCN(c6ccc7c(c6)C(=O)N(C6CCC(=O)NC6=O)C7=O)CC5)CC4)C3)cc2cc1NC(=O)c1coc(N2CCOCC2)n1 (centres unmarked) [Compound I-54]
14.6	7.46	COc1cc2nn(C3CC4(CCN(C(=O)C5CCN(c6ccc7c(c6)C(=O)N(C6CCC(=O)NC6=O)C7=O)CC5(F)F)CC4)C3)cc2cc1NC(=O)c1cccc(N2CCOCC2)n1 (centres unmarked) [Compound I-55]
8.05	7.56	COc1cc2nn(C3CC4(CCN(C(=O)[C@H]5CC[C@H](Nc6ccc7c(c6)C(=O)N([C@H]6CCC(=O)NC6=O)C7=O)CC5)CC4)C3)cc2cc1NC(=O)c1cccc(C(F)(F)F)n1 [Compound I-59]
2.75	7.39	COc1cc2nn(C3CC4(CCN(C(=O)[C@H]5CC[C@H](Nc6ccc7c(c6)C(=O)N([C@@H]6CCC(=O)NC6=O)C7=O)CC5)CC4)C3)cc2cc1NC(=O)c1cccc(C(F)(F)F)n1 [Compound I-60]

SMILES	DC50 [1] [nM]	pIC50 (kinase IRAK4)
COc1cc2nn(C3CC4(CCN(C(=O)C5CCN(c6ccc7c(c6)C(=O)N([C@H]6CCC(=O)NC6=O)C7=O)CC5)CC4)C3)cc2cc1NC(=O)c1cccc(C(F)(F)F)n1 [Compound I-57]	12.2	7.49
COc1cc2nn(C3CC4(CCN(C(=O)C5CCN(c6ccc7c(c6)C(=O)N([C@@H]6CCC(=O)NC6=O)C7=O)CC5)CC4)C3)cc2cc1NC(=O)c1cccc(C(F)(F)F)n1 [Compound I-58]	2.67	7.45
